The values that follow come from patent US12391671B2, “Allosteric EGFR inhibitors and methods of use thereof” (Dana-Farber Cancer Institute, Inc., priority 2019, dated 2025).

Assay [1] deals with NSCLC resistant to gefitinib or erlotinib. As to conditions: patients with NSCLC that have developed resistance to gefitinib or erlotinib; cited from earlier work.
Assay [2] has as its system EGFR mutant L858R Ba/F3 cells. Briefly: Ba/F3 cell proliferation model (Cell Titer Glo), EGFR L858R. In kind it is cell-based, murine. As to conditions: 72 hours. From the text: Example 26: Ba/F3 Cell Proliferation Models
The EGFR mutant L858R and L858R/T790M Ba/F3 cells have been previously described (Zhou, W., et al. Nature 462, 2009, 1070-1074). All cell lines were maintained in RPM 1640 (Cellgro; Mediatech Inc., Herndon. CA) supplemented with 10% FBS, 100 units/mL penicillin, 100 units/mL streptomycin. The EGFR I941R mutation was introduced via site directed mutagenesis using the Quick Change Site-Directed Mutagenesis kit (Stratagene; La Jolla, CA) according to the manufacturer's instructions. All constructs were confirmed by DNA sequencing. The constructs were shuttled into the retroviral vector JP1540 using the Cre-recombination system (Agilent Technologies, Santa Clara, CA). Ba/F3 cells were then infected with retrovirus per standard protocols, as described previously (Zhou, et al, Nature 2009). Stable clones were obtained by selection in puromycin (2 μg/ml).
Growth and inhibition of growth was assessed by the Cell Titer Glo® assay (Promega, Madison, WI) and was performed according to the manufacturer's instructions. The Cell Titer Glo® assay is a luminescence-based method used to determine the number of viable cells based on quantitation of the ATP present, which is directly proportional to the amount of metabolically active cells present. Ba/F3 cells of different EGFR genotypes were exposed to compounds as a single agent or in combination with 1 μg/mL cetuximab for 72 hours and the number of cells used per experiment was determined empirically as has been previously established (Zhou, et al., Nature 2009). All experimental points were set up in triplicates in 384-well plates and all experiments were repeated at least three times. […] The curves were fitted using a non-linear regression model with a sigmoidal dose response.

Assay [3] addresses EGFR L858R (Homo sapiens (Human), UniProt P00533, L858R). Briefly: HTRF-based EGFR biochemical assay (L858R). The conditions noted are these: 100 μM ATP, enzyme 0.1 nM. The method in brief: (§1)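 Mutant EGFR (L858R 0.1 nM, L858R/T790M 0.02 nM) preincubated 30 min with compounds at room temperature in HEPES pH 7.0 buffer with Mg2+/Mn2+, then reacted 20 min with 1 μM biotinylated tyrosine kinase peptide and 100 μM ATP. Phosphorylation read by HTRF (Eu-cryptate anti-phosphotyrosine/streptavidin-XL665, 665/620 nm) after EDTA quench.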

Assay [4] relates to EGFR mutant L858R/T790M Ba/F3 cells. Briefly: Ba/F3 cell proliferation model (Cell Titer Glo), EGFR L858R/T790M. As to conditions: 72 hours. In kind it is cell-based, murine. The method in brief: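 Retrovirally transduced Ba/F3 cells exposed 72 h to compound alone or with 1 μg/mL cetuximab, triplicate points, repeated at least three times. Viability by Cell Titer Glo luminescence (ATP); curves fitted by non-linear sigmoidal dose-response regression.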

Assay [5] concerns the target EGFR L858R/T790M (Homo sapiens (Human), UniProt P00533, L858R/T790M). The assay is described as follows: HTRF-based EGFR biochemical assay (L858R/T790M). The conditions noted are these: 100 μM ATP, enzyme 0.02 nM. The method in brief:
as §1

Setting [6] is: in combination with 1 μg/mL cetuximab, read-out: Cell IC50 BaF3 EGFR L858R (+cetux.).
The mark [7] stands for this setting: in combination with 1 μg/mL cetuximab, read-out: Cell IC50 BaF3 EGFR L858R/T790M (+cetux.).
The mark [8] stands for this setting: Mus musculus, BaF3, single agent, read-out: Cell IC50 BaF3 EGFR L858R.
Setting [9] is: Mus musculus, BaF3, single agent, read-out: Cell IC50 BaF3 EGFR L858R/T790M.

Structures can show the parent of a compound that is named as a salt. Where two headings read alike, the source gives them in different places.

Sequence of EGFR L858R (P00533 25-1210 L858R): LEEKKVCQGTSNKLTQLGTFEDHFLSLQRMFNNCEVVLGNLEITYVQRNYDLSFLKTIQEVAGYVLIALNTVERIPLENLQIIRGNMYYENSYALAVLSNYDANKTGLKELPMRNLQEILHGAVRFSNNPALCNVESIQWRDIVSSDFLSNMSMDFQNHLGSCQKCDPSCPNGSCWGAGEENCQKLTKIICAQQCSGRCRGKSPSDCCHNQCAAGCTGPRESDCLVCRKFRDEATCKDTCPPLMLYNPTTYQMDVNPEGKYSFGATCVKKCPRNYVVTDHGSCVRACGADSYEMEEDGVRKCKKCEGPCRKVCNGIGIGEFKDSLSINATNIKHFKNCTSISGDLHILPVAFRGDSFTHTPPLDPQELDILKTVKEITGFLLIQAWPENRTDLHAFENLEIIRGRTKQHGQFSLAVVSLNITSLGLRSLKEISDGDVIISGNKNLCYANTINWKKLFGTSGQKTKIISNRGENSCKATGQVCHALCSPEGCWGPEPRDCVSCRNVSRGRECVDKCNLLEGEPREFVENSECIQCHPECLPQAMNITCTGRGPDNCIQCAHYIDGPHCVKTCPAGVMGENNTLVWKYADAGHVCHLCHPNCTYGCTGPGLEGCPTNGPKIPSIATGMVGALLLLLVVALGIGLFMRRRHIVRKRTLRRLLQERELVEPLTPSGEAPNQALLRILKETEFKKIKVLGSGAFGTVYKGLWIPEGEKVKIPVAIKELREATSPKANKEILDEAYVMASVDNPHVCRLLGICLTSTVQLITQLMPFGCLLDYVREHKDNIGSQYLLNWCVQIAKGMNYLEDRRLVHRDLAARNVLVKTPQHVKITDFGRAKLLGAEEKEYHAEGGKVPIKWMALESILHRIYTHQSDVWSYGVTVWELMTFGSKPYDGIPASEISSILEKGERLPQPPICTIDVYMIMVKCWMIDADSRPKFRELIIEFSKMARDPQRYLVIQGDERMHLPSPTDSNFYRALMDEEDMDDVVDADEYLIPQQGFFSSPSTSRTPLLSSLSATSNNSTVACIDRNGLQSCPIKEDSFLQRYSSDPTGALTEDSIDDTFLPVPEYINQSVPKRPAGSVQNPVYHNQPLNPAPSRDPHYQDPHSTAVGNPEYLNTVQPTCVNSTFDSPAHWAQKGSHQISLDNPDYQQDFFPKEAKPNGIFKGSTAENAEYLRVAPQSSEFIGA
Sequence of EGFR L858R/T790M (P00533 25-1210 T790M/L858R): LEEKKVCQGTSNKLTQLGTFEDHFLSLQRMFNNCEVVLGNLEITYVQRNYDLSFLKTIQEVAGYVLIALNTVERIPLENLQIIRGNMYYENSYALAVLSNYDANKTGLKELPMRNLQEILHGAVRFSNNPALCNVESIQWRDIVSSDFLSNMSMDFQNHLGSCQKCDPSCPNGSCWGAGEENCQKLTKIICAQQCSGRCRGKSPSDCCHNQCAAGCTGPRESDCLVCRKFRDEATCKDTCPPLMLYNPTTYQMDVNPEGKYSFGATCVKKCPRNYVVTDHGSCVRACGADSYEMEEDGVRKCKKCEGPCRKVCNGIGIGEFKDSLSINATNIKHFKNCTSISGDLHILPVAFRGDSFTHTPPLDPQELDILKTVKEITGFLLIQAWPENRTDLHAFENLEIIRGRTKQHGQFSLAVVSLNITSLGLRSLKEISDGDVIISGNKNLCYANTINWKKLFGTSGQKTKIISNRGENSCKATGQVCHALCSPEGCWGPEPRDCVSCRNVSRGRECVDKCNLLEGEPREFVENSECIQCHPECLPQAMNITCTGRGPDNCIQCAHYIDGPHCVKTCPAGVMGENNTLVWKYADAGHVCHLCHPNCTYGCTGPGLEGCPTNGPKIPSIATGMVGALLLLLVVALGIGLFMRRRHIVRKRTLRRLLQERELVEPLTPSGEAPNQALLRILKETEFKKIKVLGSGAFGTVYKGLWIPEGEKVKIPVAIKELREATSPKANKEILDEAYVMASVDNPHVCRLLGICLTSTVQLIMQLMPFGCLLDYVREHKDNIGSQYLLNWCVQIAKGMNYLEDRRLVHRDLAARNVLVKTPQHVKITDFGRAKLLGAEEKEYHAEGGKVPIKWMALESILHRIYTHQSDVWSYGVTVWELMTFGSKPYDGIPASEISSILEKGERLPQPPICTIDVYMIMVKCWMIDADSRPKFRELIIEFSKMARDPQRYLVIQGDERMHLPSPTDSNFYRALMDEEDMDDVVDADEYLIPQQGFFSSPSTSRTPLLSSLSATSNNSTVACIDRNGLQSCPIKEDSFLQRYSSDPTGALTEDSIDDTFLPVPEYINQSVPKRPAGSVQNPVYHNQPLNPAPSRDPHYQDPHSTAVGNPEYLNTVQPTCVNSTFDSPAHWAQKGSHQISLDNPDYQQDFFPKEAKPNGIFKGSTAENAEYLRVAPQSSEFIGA

In the case of `CN(C)C/C=C/C(=O)Nc1cc2c(Nc3ccc(F)c(Cl)c3)ncnc2cc1O[C@H]1CCOC1` [afatinib], the “RR (response rate)” value in assay [1] was “less than 10%”.

As for `CN1CCC(c2ccc(-c3ccc4c(c3)C(=O)N([C@@H](c3nc5ccccc5[nH]3)c3cc(F)ccc3O)C4)cc2)CC1` [Compound 022, 2-[(R)-1H-benzimidazol-2-yl-(5-fluoro-2-hydroxy-phenyl)methyl]-6-[4-(1-methyl-4-piperidyl)phenyl]isoindolin-1-one], the IC50 was found to be 40 nM in assay [2] (setting [6]); 640 nM in assay [2] (single agent, read-out: Cell IC50 BaF3 EGFR L858R); 0.3 nM in assay [3]; 5 nM in assay [4] (setting [7]); 380 nM in assay [4] (single agent, read-out: Cell IC50 BaF3 EGFR L858R/T790M); 0.1 nM in assay [5].

For `CN1CCC(c2ccc(-c3ccc4c(c3)C(=O)N(C(c3nc5ccccc5[nH]3)c3cc(F)ccc3O)C4)cc2)CC1` (centres unmarked) [Compound 024, 2-[1H-Benzimidazol-2-yl-(5-fluoro-2-hydroxy-phenyl)methyl]-6-[4-(1-methyl-4-piperidyl)phenyl]isoindolin-1-one; hydrochloride], the IC50 is 1180 nM in assay [2] (setting [8]); 60 nM in assay [2] (setting [6]); 2 nM in assay [3]; 440 nM in assay [4] (setting [9]); 7 nM in assay [4] (setting [7]); 0.5 nM in assay [5].

Take `CN1CCC(c2ccc(-c3cc(F)c4c(=O)n([C@@H](c5nc6ccccc6[nH]5)c5cc(F)ccc5O)ccc4c3)cc2)CC1` (single isomer, unassigned) [Compound 065]: the IC50 turned out to be 130 nM in assay [2] (setting [8]), 2 nM in assay [3], 30 nM in assay [4] (setting [9]) and 0.5 nM in assay [5].

In the case of `CN1CCC(c2ccc(-c3ccc4cn(C(c5nc6ccccc6[nH]5)c5cc(F)ccc5O)nc4c3)cc2)CC1` (centres unmarked) [Compound 100, 2-((1H-Benzo[d]imidazol-2-yl)(6-(4-(1-methylpiperidin-4-yl)phenyl)-2H-indazol-2-yl)methyl)-4-fluorophenol; trifluoroacetate], the IC50 in assay [2] (setting [8]) is 2000 nM; in assay [3] it was 14 nM; in assay [4] (setting [9]) it was 530 nM; in assay [5], 4 nM.

Take `CCc1c(-c2ccc(C3CCN(C)CC3)cc2)ccc2ncn(C(c3nc4ccccc4[nH]3)c3cc(F)ccc3O)c(=O)c12` (centres unmarked) [Compound 074, 3-[1H-benzimidazol-2-yl-(5-fluoro-2-hydroxy-phenyl)methyl]-5-ethyl-6-[4-(1-methyl-4-piperidyl)phenyl]-quinazolin-4-one; dihydrochloride]: the IC50 came to 110 nM in assay [2] (setting [8]); 2 nM in assay [3]; 120 nM in assay [4] (setting [9]); 20 nM in assay [4] (setting [7]); 1 nM in assay [5].

Take `CN1CCC(c2ccc(-c3ccc4ccn(C(c5nc6ccccc6[nH]5)c5cc(F)ccc5O)c(=O)c4c3)cc2)CC1` (centres unmarked) [Compound 063, 2-[1H-benzimidazol-2-yl-(5-fluoro-2-hydroxy-phenyl)methyl]-7-[4-(1-methyl-4-piperidyl)phenyl]isoquinolin-1-one]: the IC50 in assay [2] (setting [8]) was 1050 nM; in assay [3], 9 nM; in assay [4] (setting [9]), 890 nM; in assay [4] (setting [7]), 50 nM; in assay [5], 2 nM.

For the compound `CN1CCC2(c3ccc(-c4ccc5c(c4)C(=O)N(C(c4nc6ccccc6[nH]4)c4cc(F)ccc4O)C5)cc3)CC2C1` (centres unmarked) [Compound 079, 2-[1H-benzimidazol-2-yl-(5-fluoro-2-hydroxy-phenyl)methyl]-6-[4-(3-methyl-3-azabicyclo[4.1.0]heptan-6-yl)phenyl]isoindolin-1-one; dihydrochloride], the IC50 in assay [2] (setting [8]) turned out to be 830 nM; in assay [3], 3 nM; in assay [4] (setting [9]) it was 190 nM; in assay [4] (setting [7]), 7 nM; in assay [5], 0.8 nM.

As for `CN1CCC(c2ccc(-c3ccc4ccn(C(c5ccccc5)c5nc6ccccc6[nH]5)c(=O)c4c3F)cc2)CC1` (centres unmarked) [Compound 071], the IC50 in assay [2] (setting [8]) was 1210 nM; in assay [3], greater than 100 nM; in assay [4] (setting [9]) it was 1380 nM; in assay [4] (setting [7]) it was 330 nM; in assay [5] it was 20 nM.

On to `CN1CCC(c2ccc(-c3ccc4c(c3)C(=O)N(C(c3nc5cccnc5[nH]3)c3cc(F)ccc3O)C4)cc2)CC1` (centres unmarked) [Compound 014, 2-[(5-Fluoro-2-hydroxy-phenyl)-(3H-imidazo[4,5-b]pyridin-2-yl)methyl]-6-[4-(1-methyl-4-piperidyl)phenyl]isoindolin-1-one; hydrochloride], for which the IC50 was determined as 810 nM in assay [2] (setting [8]); 60 nM in assay [2] (setting [6]); 2 nM in assay [3]; 710 nM in assay [4] (setting [9]); 10 nM in assay [4] (setting [7]); 0.3 nM in assay [5].

In the case of `CN1CCC(c2ccc(-c3ccc4cn(C(c5nc6ccccc6[nH]5)c5cc(F)ccc5O)nc4c3F)cc2)CC1` (centres unmarked) [Compound 034, 2-[1H-benzimidazol-2-yl-[7-fluoro-6-[4-(1-methyl-4-piperidyl)phenyl]indazol-2-yl]methyl]-4-fluoro-phenol;hydrochloride], the IC50 in assay [2] (setting [8]) was 1430 nM; in assay [2] (setting [6]) it was 60 nM; in assay [3], 4 nM; in assay [4] (setting [9]), 420 nM; in assay [4] (setting [7]), 5 nM; in assay [5], 0.7 nM.
